Target: IGF-1R (Homo sapiens (Human), UniProt P08069)
Assay: Example B-1: IGF-1R Assay (PC3 cells, IGF1 stimulation, AlphaLISA)
Format: cell-based
Details: 200 ng/mL IGF1 stimulation, read-out: Biological Activity against IGF-1R IC50
Outline: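 Readout is AlphaLISA signal from lysed PC3 cells, expressed as % inhibition versus vehicle and EC80 controls and banded by IC50. Before lysis, the cells were starved of serum for 2 h, exposed to 3× serially diluted compound for 2 h, and stimulated for 30 min with 200 ng/mL IGF1 (final).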

Chain of IGF-1R (P08069 31-1367): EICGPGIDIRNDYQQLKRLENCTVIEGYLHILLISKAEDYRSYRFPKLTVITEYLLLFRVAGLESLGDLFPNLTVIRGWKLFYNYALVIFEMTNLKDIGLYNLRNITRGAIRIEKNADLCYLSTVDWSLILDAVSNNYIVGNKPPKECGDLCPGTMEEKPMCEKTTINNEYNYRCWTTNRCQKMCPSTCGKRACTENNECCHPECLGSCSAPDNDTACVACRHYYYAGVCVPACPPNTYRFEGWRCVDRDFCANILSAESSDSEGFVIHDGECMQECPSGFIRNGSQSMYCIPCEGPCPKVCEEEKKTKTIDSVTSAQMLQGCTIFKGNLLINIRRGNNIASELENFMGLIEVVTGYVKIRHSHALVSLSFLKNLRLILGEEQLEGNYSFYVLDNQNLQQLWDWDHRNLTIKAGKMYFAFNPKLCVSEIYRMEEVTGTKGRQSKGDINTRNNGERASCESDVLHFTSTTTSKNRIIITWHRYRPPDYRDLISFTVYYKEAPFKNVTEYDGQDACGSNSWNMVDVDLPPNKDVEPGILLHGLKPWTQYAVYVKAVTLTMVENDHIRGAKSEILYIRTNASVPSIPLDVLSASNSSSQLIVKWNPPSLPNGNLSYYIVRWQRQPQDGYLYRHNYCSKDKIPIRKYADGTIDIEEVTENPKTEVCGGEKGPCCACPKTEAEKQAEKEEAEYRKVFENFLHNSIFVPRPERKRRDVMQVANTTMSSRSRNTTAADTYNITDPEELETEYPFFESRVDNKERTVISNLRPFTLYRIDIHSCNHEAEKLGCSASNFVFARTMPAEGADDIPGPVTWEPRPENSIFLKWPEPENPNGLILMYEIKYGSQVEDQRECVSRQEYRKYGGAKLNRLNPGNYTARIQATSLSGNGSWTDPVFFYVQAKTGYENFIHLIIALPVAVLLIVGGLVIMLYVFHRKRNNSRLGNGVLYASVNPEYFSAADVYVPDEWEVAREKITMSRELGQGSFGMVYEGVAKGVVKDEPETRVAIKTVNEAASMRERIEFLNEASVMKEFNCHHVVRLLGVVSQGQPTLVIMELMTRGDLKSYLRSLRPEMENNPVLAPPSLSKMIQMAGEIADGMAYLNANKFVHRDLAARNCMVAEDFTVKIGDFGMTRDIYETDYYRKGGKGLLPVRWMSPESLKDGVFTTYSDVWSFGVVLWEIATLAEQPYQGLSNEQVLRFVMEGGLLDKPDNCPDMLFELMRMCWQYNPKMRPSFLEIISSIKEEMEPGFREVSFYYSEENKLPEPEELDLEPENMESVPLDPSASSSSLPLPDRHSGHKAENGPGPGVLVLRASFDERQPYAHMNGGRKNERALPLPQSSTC

| Compound | IC50 [nM] |
| --- | --- |
| COc1cc(Nc2nccc(Nc3cnc4cc(Cl)ccc4c3)n2)ccc1O[C@H]1C[C@@H](N(C)C)C1 [Compound 342, 4-(7-chloro-3-quinolylamino)-2-{3-methoxy-4-[(1s,3s)-3-(dimethylamino)cyclobutoxy]phenylamino}pyrimidine] | ≤ 500 |
| COc1cc(Nc2nccc(Nc3cnc4ccc(Cl)cc4c3)n2)ccc1O[C@H]1C[C@@H](N(C)C)C1 [Compound 343, 4-(6-chloro-3-quinolylamino)-2-{3-methoxy-4-[(1s,3s)-3-(dimethylamino)cyclobutoxy]phenylamino}pyrimidine] | ≤ 500 |
| COc1ccc2cc(Nc3ccnc(Nc4ccc(O[C@@H]5C[C@H]6COC[C@@H](C5)N6C)cc4)n3)cnc2c1 [Compound 345, 2-(p-{(1R,5S,7s)-9-methyl-3-oxa-9-azabicyclo[3.3.1]non-7-yloxy}phenylamino)-4-(7-methoxy-3-quinolylamino)pyrimidine] | 500 to 2000 |
| COc1ccc2cc(Nc3ccnc(Nc4ccc(O[C@H]5C[C@H]6COC[C@@H](C5)N6C)cc4)n3)cnc2c1 [Compound 346, 2-(p-{(1R,5S,7r)-9-methyl-3-oxa-9-azabicyclo[3.3.1]non-7-yloxy}phenylamino)-4-(7-methoxy-3-quinolylamino)pyrimidine] | 500 to 2000 |
| O=S1(=O)CCN([C@H]2C[C@H](Oc3ccc(Nc4nccc(Nc5cnc6ccc(Br)cc6c5)n4)cc3)C2)CC1 [Compound 347] | ≤ 500 |
| O=S1(=O)CCN([C@H]2C[C@H](Oc3ccc(Nc4nccc(Nc5cnc6c(c5)OCCO6)n4)cc3)C2)CC1 [Compound 348] | ≤ 500 |
| O=S1(=O)CCN([C@H]2C[C@H](Oc3ccc(Nc4nccc(Nc5cnc6c(Cl)cccc6c5)n4)cc3)C2)CC1 [Compound 349] | 500 to 2000 |
| O=S1(=O)CCN([C@H]2C[C@H](Oc3ccc(Nc4nccc(Nc5cnc6cc(Cl)ccc6c5)n4)cc3)C2)CC1 [Compound 350, 4-[(1r,3r)-3-{p-[4-(7-chloro-3-quinolylamino)-2-pyrimidinylamino]phenoxy}cyclobutyl]-1λ^6,4-thiazinane-1,1-dione] | 2000 to 10000 |
| O=S1(=O)CCN([C@H]2C[C@H](Oc3ccc(Nc4nccc(Nc5cnc6c(c5)C5CCC6C5)n4)cc3)C2)CC1 (stereo partly shown) [Compound 351, 4-[(1r,3r)-3-[p-(4-{3-azatricyclo[6.2.1.02,7]undeca-2(7),3,5-trien-5-ylamino}-2-pyrimidinylamino)phenoxy]cyclobutyl]-1λ^6,4-thiazinane-1,1-dione] | 500 to 2000 |
| COc1ccc2cc(Nc3ccnc(Nc4ccc(O[C@H]5C[C@@H](N6CCOCC6)C5)cc4)n3)cnc2c1 [Compound 352, 4-(7-methoxy-3-quinolylamino)-2-{p-[(1s,3s)-3-morpholinocyclobutoxy]phenylamino}pyrimidine] | 2000 to 10000 |
| COc1ccc2cc(Nc3ccnc(Nc4ccc(O[C@H]5C[C@H](N6CCS(=O)(=O)CC6)C5)cc4)n3)cnc2c1 [Compound 353] | 2000 to 10000 |
| COc1ccc2cc(Nc3ccnc(Nc4ccc(O[C@H]5C[C@H](N6CCCCC6)C5)cc4)n3)cnc2c1 [Compound 354, 4-(7-methoxy-3-quinolylamino)-2-{p-[(1r,3r)-3-piperidinocyclobutoxy]phenylamino}pyrimidine] | 2000 to 10000 |
| COc1ccc2cc(Nc3ccnc(Nc4ccc(O[C@H]5C[C@H](N(C)C)C5)cc4)n3)cnc2c1 [Compound 355, 4-(7-methoxy-3-quinolylamino)-2-{p-[(1r,3r)-3-(dimethylamino)cyclobutoxy]phenylamino}pyrimidine] | 500 to 2000 |
| COc1ccc2cc(Nc3ccnc(Nc4ccc(O[C@H]5C[C@H](N6CCOCC6)C5)cc4)n3)cnc2c1 [Compound 356, 4-(7-methoxy-3-quinolylamino)-2-{p-[(1r,3r)-3-morpholinocyclobutoxy]phenylamino}pyrimidine] | 500 to 2000 |
| COc1cc(Nc2nccc(Nc3cnc4c(Cl)cccc4c3)n2)ccc1O[C@H]1C[C@H](N(C)C)C1 [Compound 358, 4-(8-chloro-3-quinolylamino)-2-{3-methoxy-4-[(1r,3r)-3-(dimethylamino)cyclobutoxy]phenylamino}pyrimidine] | ≤ 500 |
| COc1cc(Nc2nccc(Nc3cnc4c(c3)OCCO4)n2)ccc1O[C@H]1C[C@H](N2CCS(=O)(=O)CC2)C1 [Compound 359, 4-[(1r,3r)-3-{4-[4-(2,3-dihydro-1,4-dioxa-5-aza-7-naphthylamino)-2-pyrimidinylamino]-2-methoxyphenoxy}cyclobutyl]-1λ^6,4-thiazinane-1,1-dione] | ≤ 500 |
| COc1cc(Nc2nccc(Nc3cnc4c(c3)CCCO4)n2)ccc1O[C@H]1C[C@H](N2CCOCC2)C1 [Compound 360, 4-(3,4-dihydro-2H-1-oxa-8-azanaphth-6-ylamino)-2-{3-methoxy-4-[(1r,3r)-3-morpholinocyclobutoxy]phenylamino}pyrimidine] | ≤ 500 |
| COc1cc(Nc2nccc(Nc3cnc4ccc(Cl)cc4c3)n2)ccc1O[C@H]1C[C@H](N2CCOCC2)C1 [Compound 361, 4-(6-chloro-3-quinolylamino)-2-{3-methoxy-4-[(1r,3r)-3-morpholinocyclobutoxy]phenylamino}pyrimidine] | ≤ 500 |
| c1ccc2ncc(Nc3ccnc(Nc4ccc(O[C@H]5C[C@@H](N6CCCCC6)C5)cc4)n3)cc2c1 [Compound 363, 4-(3-quinolylamino)-2-{p-[(1s,3s)-3-piperidinocyclobutoxy]phenylamino}pyrimidine] | ≤ 500 |
| COc1cc(Nc2nccc(Nc3cnc4c(c3)CCCC4)n2)ccc1O[C@H]1C[C@@H](N(C)C)C1 [Compound 364, 2-{3-methoxy-4-[(1s,3s)-3-(dimethylamino)cyclobutoxy]phenylamino}-4-(5,6,7,8-tetrahydro-3-quinolylamino)pyrimidine] | ≤ 500 |
| COc1cc(Nc2nccc(Nc3cnc4c(c3)CCCO4)n2)ccc1O[C@H]1C[C@@H](N(C)C)C1 [Compound 365, 4-(3,4-dihydro-2H-1-oxa-8-azanaphth-6-ylamino)-2-{3-methoxy-4-[(1s,3s)-3-(dimethylamino)cyclobutoxy]phenylamino}pyrimidine] | ≤ 500 |
| COc1cc(Nc2nccc(Nc3cnc4c(c3)SCCC4)n2)ccc1O[C@H]1C[C@@H](N(C)C)C1 [Compound 366, 4-(3,4-dihydro-2H-1-thia-5-azanaphth-7-ylamino)-2-{3-methoxy-4-[(1s,3s)-3-(dimethylamino)cyclobutoxy]phenylamino}pyrimidine] | ≤ 500 |
| CN(C)[C@H]1C[C@@H](Oc2ccc(Nc3nccc(Nc4cnc5ccccc5c4)n3)cc2)C1 [Compound 367, 4-(3-quinolylamino)-2-{p-[(1s,3s)-3-(dimethylamino)cyclobutoxy]phenylamino}pyrimidine] | ≤ 500 |
| COc1cc(Nc2nccc(Nc3cnc4ccccc4c3)n2)ccc1O[C@H]1C[C@H](N(C)C)C1 [Compound 369, 2-{3-methoxy-4-[(1r,3r)-3-(dimethylamino)cyclobutoxy]phenylamino}-4-(3-quinolylamino)pyrimidine] | ≤ 500 |
| COc1cc(Nc2nccc(Nc3cnc4c(c3)CCCC43CCCC3)n2)ccc1OCCCN1CCCCC1 [Compound 370, 4-(6′,7′-dihydro-5′H-spiro[cyclopentane-1,8′-quinolin]-3′-ylamino)-2-[3-methoxy-4-(3-piperidinopropoxy)phenylamino] pyrimidine] | ≤ 500 |
